Values of other authors in US20140295417A1, “IDENTIFICATION OF ANTIBIOTIC RESISTANCE” (priority 2011, published 2014).
Like-named read-outs stand apart in the source and are kept apart here.

Tested on: 23S rRNA
Settings: cited from earlier work
[1] = 23S rRNA position 2611, "C to G", Chlamydomonas reinhardtii (Harris et al. 1989)
[2] = 23S rRNA position 2611, "C to U", Chlamydomonas reinhardtii (Harris et al. 1989)

C[C@H]1O[C@H](O[C@H]2CC[C@H](n3ccc(NC(=O)c4ccc(NC(=O)[C@@](C)(N)CO)cc4)nc3=O)O[C@@H]2C)[C@H](O)[C@@H](O)[C@@H]1N(C)C [Amicetin]
Phenotype (23S rRNA position 2438 "U to A", Halobacterium halobium): Amicetin resistance
Phenotype (23S rRNA position 2438 "U to C", Halobacterium halobium): Amicetin resistance.

COc1ccc(C[C@H]2NC[C@H](O)[C@H]2OC(C)=O)cc1 [Animosycin]
Phenotype (23S rRNA position 2452 "C to U", Halobacterium (Hummel and Böck 1987)): Animosycin resistance.
Phenotype (23S rRNA position 2452 "C to U", Tetrahymena thermophilia): Animosycin resistance

COc1ccc(C[C@H]2NC[C@H](O)[C@H]2OC(C)=O)cc1 [Anisomycin]
Phenotype (23S rRNA position 2447 "G to C", Halobacterium halobium): resistance.
Phenotype (23S rRNA position 2453 "A to C", Halobacterium halobium): Anisomycin resistance

O=C(N[C@H](CO)[C@H](O)c1ccc([N+](=O)[O-])cc1)C(Cl)Cl [Chloramphenicol]
Phenotype (23S position 2061 G to A, Rat mitochondria, Vester and Garrett 1988): resistance
Phenotype (23S position 2062 A to C, Halobacterium halobium, Mankin and Garrett 1991): resistance.
Phenotype (23S rRNA position 2447 "G to A", Yeast mitochondria): resistance.
Phenotype (23S rRNA position 2451 "A to U", Mouse mitochondria): resistance.
Phenotype (23S rRNA position 2452 "C to A", Human mitochondria): resistance.
Phenotype (23S rRNA position 2452 "C to U", Halobacterium halobium (Mankin and Garrett 1991)): resistance.
Phenotype (23S rRNA position 2452 "C to U", Mouse mitochondria): resistance
Phenotype (23S rRNA position 2503 "A to C", Yeast mitochondria): resistance
Phenotype (23S rRNA position 2504 "U to C", Human mitochondria): resistance
Phenotype (23S rRNA position 2504 "U to C", Mouse mitochondria): resistance

CC[C@H]1OC(=O)[C@H](C)[C@@H](O[C@H]2C[C@@](C)(OC)[C@@H](O)[C@H](C)O2)[C@H](C)[C@@H](O[C@@H]2O[C@H](C)C[C@H](N(C)C)[C@H]2O)[C@](C)(OC)C[C@@H](C)C(=O)[C@H](C)[C@@H](O)[C@]1(C)O [Clarithomycin]
Phenotype (23S position 2059 A to G, Helecobacter pylori, Versalovic 1996): resistance.

CC[C@H]1OC(=O)[C@H](C)[C@@H](O[C@H]2C[C@@](C)(OC)[C@@H](O)[C@H](C)O2)[C@H](C)[C@@H](O[C@@H]2O[C@H](C)C[C@H](N(C)C)[C@H]2O)[C@](C)(OC)C[C@@H](C)C(=O)[C@H](C)[C@@H](O)[C@]1(C)O [Clarithromycin]
Phenotype (23S position 2058 A to G, Helecobacter pylori, Versalovic 1996): resistance

CC[C@H]1OC(=O)[C@H](C)[C@@H](O[C@H]2C[C@@](C)(OC)[C@@H](O)[C@H](C)O2)[C@H](C)[C@@H](O[C@@H]2O[C@H](C)C[C@H](N(C)C)[C@H]2O)[C@](C)(O)C[C@@H](C)C(=O)[C@H](C)[C@@H](O)[C@]1(C)O [Ery]
Phenotype (23S position 2058 A to U, double mutation (A2058U/G2032A), E. coli, Douthwaite 1992): hs
Phenotype (23S rRNA 2032 G to A, double mutation (G2032A/A2058U), E. coli): hs
Phenotype (23S rRNA 2057 G to A, double mutation (G2057A/C2661U), E. coli): Slightly Eryr;
Phenotype [1]: Eryr
Phenotype (23S rRNA position 2611, "C to U", double mutation (C2611U/G2057A), E. coli (Vester et al. 1995)): Slightly Eryr; reduced
Phenotype [2]: Eryr

CC[C@H]1OC(=O)[C@H](C)[C@@H](O[C@H]2C[C@@](C)(OC)[C@@H](O)[C@H](C)O2)[C@H](C)[C@@H](O[C@@H]2O[C@H](C)C[C@H](N(C)C)[C@H]2O)[C@](C)(O)C[C@@H](C)C(=O)[C@H](C)[C@@H](O)[C@]1(C)O [Erythromycin]
Phenotype (23S position 2058 A to G, Yeast mitochondria, Sor and Fukuhara 1982): resistance.
Phenotype (23S rRNA 1207 C to U, double mutant (C1207U/C1243U), E. coli): Erythromycin resistant. a Double
Phenotype (23S rRNA 1208 C to U, double mutant (C1208U/C1243U), E. coli): Erythromycin resistant. a Double
Phenotype (23S rRNA 1211 C to U, double mutant (C1211U/C1208U), E. coli): Erythromycin sensitive. a Double
Phenotype (23S rRNA 1220 G to A, double mutant (G1220A/G1239A), E. coli): Erythromycin resistant. a Double
Phenotype (23S rRNA 1221 C to U, double mutant (C1221U/C1229U), E. coli): Erythromycin resistant. a Double
Phenotype (23S rRNA 1221 C to U, double mutant (C1221U/C1233U), E. coli): Erythromycin resistant. a Double
Phenotype (23S rRNA 1230, double deletion (1230/1231), E. coli): Erythromycin sensitive. a Double
Phenotype (23S rRNA 1231, double deletion (1231/1230), E. coli): Erythromycin sensitive. a Double
Phenotype (23S rRNA 1232 G to A, double mutant (G1232A/G1238A), E. coli): Erythromycin sensitive. a Double
Phenotype (23S rRNA 1233 C to U, E. coli): Erythromycin sensitive. a
Phenotype (23S rRNA 1234 U to C, E. coli): Erythromycin sensitive. a
Phenotype (23S rRNA 1234 del1234/del1235, double mutant (U1234C/del1235), E. coli): Erythromycin sensitive. a Double
Phenotype (23S rRNA 1243 C to U, double mutant (C1243U/C1207), E. coli): Erythromycin resistant. a Double
Phenotype (23S rRNA 1243 C to U, double mutant (C1243U/C1208U), E. coli): Erythromycin resistant. a Double
Phenotype (23S rRNA 1243 C to U, double mutant (C1243U/C1221U), E. coli): Erythromycin resistant. a Double

CCC[C@@H]1C[C@@H](C(=O)N[C@@H]([C@H]2O[C@H](SC)[C@H](O)[C@@H](O)[C@H]2O)[C@@H](C)O)N(C)C1 [Lincomycin]
Phenotype (23S position 2058 A to G, Chlamydomonas reinhardtii, Harris 1989): resistance.
Phenotype (23S position 2058 A to G, Solanum nigrum, Kavanagh 1994): resistance.
Phenotype (23S position 2058 A to G, Tobacco chloroplasts, Cseplö 1988): resistance.
Phenotype (23S position 2059 A to G, Tobacco chloroplasts, Cseplö 1988): resistance.
Phenotype (23S rRNA 2032 G to A, Tobbaco chloroplasts): resistance.

CSC[S@+]([O-])C[C@H](CO)NC(=O)/C=C/c1c(C)[nH]c(=O)[nH]c1=O [Sparsomycin]
Phenotype (23S rRNA position 2499 "C to U", Halobacterium halobium): resistance

CC[C@H]1OC(=O)[C@H](C)[C@@H](O[C@H]2C[C@@](C)(OC)[C@@H](O)[C@H](C)O2)[C@H](C)[C@@H](O[C@@H]2O[C@H](C)C[C@H](N(C)C)[C@H]2O)[C@](C)(O)C[C@@H](C)C(=O)[C@H](C)[C@@H](O)[C@]1(C)O [erythromycin]
Phenotype: growth rate (23S rRNA 1056 G to A, E. coli, with 2058G and erythromycin): erythromycin) Reduced
Phenotype: growth rate (23S rRNA 1064 C to U, E. coli, with 2058G and erythromycin): erythromycin) Reduced
Phenotype (23S rRNA 1068 G to A, E. coli, with 2058G, expressed from rrnB or pL promotor in presence of erythromycin): 2058G) Lethal when
Phenotype (23S rRNA 1137 G to A, double mutant (G1137A/G1138C), E. coli, with 2058G and erythromycin, rrnB promoter): lethal when expressed from rrnB
Phenotype (23S rRNA 1137 G to A, E. coli, with 2058G and erythromycin, expressed from rrnB promoter): lethal when expressed from rrnB
Phenotype (23S rRNA 1138 G to C, double mutant (G1138C/G1137A), E. coli, with 2058G and erythromycin, rrnB promoter): lethal when expressed from rrnB
Phenotype (23S rRNA 1138 G to C, E. coli, with 2058G and erythromycin, rrnB promoter): lethal when expressed from rrnB
Phenotype: growth rate (23S rRNA 1262 A to C, double mutant (A1262C/U2017G), E. coli, with erythromycin): With erythromycin; reduced
Phenotype (23S rRNA 1262 A to C, E. coli, with erythromycin): With erythromycin; lethal
Phenotype (23S rRNA 1262 A to G, E. coli, with erythromycin): With erythromycin; lethal
Phenotype: growth rate (23S rRNA 1262 A to U, double mutant (A1262U/U2017G), E. coli, with erythromycin): With erythromycin; reduced
Phenotype: growth rate (23S rRNA 1262 A to U, E. coli, with erythromycin): With erythromycin; reduced
Phenotype: growth rate (23S rRNA 2017 U to A, E. coli): Reduced growth
Phenotype: growth rate (23S rRNA 2017 U to C, double mutation (U2017C/A1262G), E. coli): Reduced growth
Phenotype: growth rate (23S rRNA 2017 U to C, E. coli): Reduced growth
Phenotype: growth rate (23S rRNA 2017 U to G, double mutation (U2017G/A1262C), E. coli): Reduced growth
Phenotype: growth rate (23S rRNA 2017 U to G, double mutation (U2017G/A1262U), E. coli): Reduced growth

CC[C@H]1OC(=O)[C@H](C)[C@@H](O[C@H]2C[C@@](C)(OC)[C@@H](O)[C@H](C)O2)[C@H](C)[C@@H](O[C@@H]2O[C@H](C)C[C@H](N(C)C)[C@H]2O)[C@](C)(O)C[C@@H](C)C(=O)[C@H](C)[C@@H](O)[C@]1(C)O [eyrthomycin]
Phenotype: growth rate (23S rRNA 2017 U to G, E. coli): Reduced growth

CCC[C@@H]1C[C@@H](C(=O)N[C@@H]([C@H]2O[C@H](SC)[C@H](O)[C@@H](O)[C@H]2O)[C@@H](C)O)N(C)C1 [lincomycin]
Phenotype [1]: low level
Phenotype [2]: low level
